In US3956328A, “S-triazolo(1,5-a)pyridine derivative” (Kyorin Seiyaku Kabushiki Kaisha, priority 1973, dated 1976):
Values joined by “and” are separate entries in the source; they are usually repeats but may differ in a detail not shown here. Equal values may be shown once. “Also recorded” adds a separate entry of the source.

Legend:
[1] = Acute oral toxicity in mice; assay type: in vivo; settings: mouse, in vivo, po
Method: (§1) That of homochlorcyclyzine used as a standard drug is reported to be 353 mg/kg for mice.

ddN mice = test: Acute oral toxicity in mice; assay type: in vivo; settings: acute oral
Method: as §1

[2] = Acute oral toxicity in rats; settings: rat, in vivo
Method: as §1

[3] = tested on: BSA induced asthma in guinea pigs; test: Inhibitory action on BSA-induced (experimentally allergic) asthma attack in passively sensitized guinea pigs; assay type: in vivo, guinea pig; set-up: key to z1 (statistical value vs non treatment): Mann-Whitney U z statistic, treated vs non-treated; settings: for p (statistical significance vs non treatment) / z1 (statistical value vs non treatment) / p (present compound vs homochlorcyclizine) / z2 (statistical value, present compound vs homochlorcyclizine): severity; for z1 (statistical value vs non treatment) / z2 (statistical value, present compound vs homochlorcyclizine): Mann and Whitney U test
Method: The present compound is studied on asthma attacks induced by the antigen-antibody reaction in guinea pigs. The guinea pigs are sensitized passively by the injection of 0.1 to 0.3 ml /100g body weight of rabbit antiserum to BSA (bovine serum albumin) into the ear vein. Forty six hours after passive sensitization, the guinea pigs are orally given the tested compounds. Two hours after oral administration, the asthma attack is provoked by an aerosol injection (0.1 ml/min.) of 1% BSA solution in physiological saline into the plastic chamber in which the testing guinea pig is placed. The symptoms of the asthma attack are observed for 10 minutes and scored on the following shock indices. The shock indices are examined by the shock grades, No. of collapsed guinea pigs/No. of used animals and survival rate.
The shock grades are as follows:
1 slight stimulation of expiration
2 stimulation of expiration (labored expiration)
3 attack of singultation
4 the strongest attack of collapse and struggle
but recovery from collapse within 5 minutes
5 recovery from collapse within 5 to 10 minutes
6 interruption of expiration to death within 10
*Statistical comparisons were carried out with the Mann and Whitneys' U
z1 : The statistical value between non treatment and each tested
z2 : The statistical value between the present compound and […]

[4] = tested on: histamine-induced asthma attack; test: Inhibitory action on histamine-induced asthma attack in guinea pigs; assay type: in vivo, guinea pig; settings: for z1 (statistical value): Mann and Whitney U test
Method: Inhibitory actions on histamine-induced asthma attack: Male guinea pigs, of about 300 g body weight are used. Asthma attack is provoked by an aerosol of 0.2% histamine dihydrochloride solution in physiological saline for 10 minutes. The inhibitory actions are examined by shock grades, No. of collapsed guinea pigs/No. of provoked guinea pigs and survival rate. The tested compounds are orally given 2 hrs. prior to spraying of histamine solution.
A/B: No. of collapsed guinea pigs/ No. of provoked guinea pigs.
Statistical comparisons were carried out with the Mann and Whtineys' U

[5] = tested on: guinea pig tracheal chain strips; test: Anti histaminic action: histamine-induced contraction of guinea pig tracheal chain strips; settings: 4×10^^-5 M; Tyrodes solution
[6] = tested on: anti acetylcholinergic action; test: Anti cholinergic action
[7] = tested on: heterologous PCA in guinea pigs; test: Heterologous passive cutaneous anaphylaxis (PCA) in guinea pigs; assay type: in vivo, guinea pig; settings: 25 mg/kg po, 30 min. before challenge; rabbit antiserum to egg albumin
Method: Male guinea pigs are passively sensitized by the intradermal injection of rabbit antiserum to egg albumin and challenged by the intravenous injection of egg albumin 4 hrs. after the sensitization. The test compounds are orally given 30 min. before the challenge.

homologous PCA in rats [8] = test: Homologous PCA in Wistar rats; assay type: in vivo, rat (Wistar); settings: for Inhibition % of extravasation of blue dye: Wistar, egg albumin, 30 min. before challenge, 72 hrs. after sensitization
Source text: (§2) Male wistar or SD rats are passively sensitized by Motas method (Immunology 7, 681, 1964) and challenged by the intravenous injection of wistar or SD rat antiserum to egg albumin or horse serum. The inhibitory action of the present compound on homologous PCA (induced by reaginlike, mast cell sensitizing antibody) is shown in Table 5.

homologous PCA in rats [9] = test: Homologous PCA in SD rats; assay type: in vivo, rat (SD)
Source text: as §2

guinea pig ileum = test: Schultz-Dale reaction in guinea pig ileum sensitized actively with egg albumin; settings: actively-sensitized guinea pig ileum
Method: Male guinea pigs are actively sensitized and their ileum preparations are treated by Schultz-Dales method (J. Pharmacol. Exp. Ther., 4, 167, 1913). […] These preceeding pharmacological properties of the present compound are due to triazolo [1,5-a]pyridine.

[10] = antiserum 0.1 ml/100 g, 0.5 mg/kg p.o.
[11] = antiserum 0.1 ml/100 g, 1.0 mg/kg p.o.
[12] = antiserum 0.1 ml/100 g, 5.0 mg/kg p.o.
[13] = antiserum 0.2 ml/100 g, 5 mg/kg p.o.
[14] = antiserum 0.3 ml/100 g, 5 mg/kg p.o.
[15] = 2.50 mg/kg p.o. vs homochlorcyclizine (250 mg/kg (so in the source))

With `c1ccc(C(c2ccccc2)N2CCN(CCCc3nc4ccccn4n3)CC2)cc1` [the present compound, 2-[3-(4-diphenylmethyl-1-piperazinyl)propyl] -s-triazolo[1,5-a]pyridine] the LD50 ([1]; female ddN mice, confidence limit 418-563 mg/kg) was 485 mg/kg, the LD50 ([1]; male ddN mice, confidence limit 507-768 mg/kg) was 625 mg/kg and the “toxicity compared with homochlorcyclizine” value (ddN mice) was “lower toxicity than that of homochlorcyclizine”. The LD50 ([2]; male wistar rats, confidence limit 1,05l-1, 790 mg/kg) was 1370 mg/kg, the LD50 ([2]; po, female wistar rats) was less than 450 mg/kg and the severe asthma attack ([3]; 5 mg/kg dose) was “suppresses completely severe asthma attack”. For the same molecule, the “A/B: No. of collapsed / No. of provoked guinea pigs” value [3, 10] was 3/6, the “A/B: collapsed guinea pigs, percentage” value [3, 10] was 50% and the “Survival rate (animals)” value [3, 10] was 5/6. The “Survival rate, percentage” value [3, 10] was 83.3%, the “A/B: No. of collapsed / No. of provoked guinea pigs” value [3, 11] was 4/10 and the “A/B: collapsed guinea pigs, percentage” value [3, 11] was 40%. The “Survival rate (animals)” value [3, 11] was 10/10, the “Survival rate, percentage” value [3, 11] was 100% and the “A/B: No. of collapsed / No. of provoked guinea pigs” value [3, 12] was 0/6. For the same molecule, the “A/B: collapsed guinea pigs, percentage” value [3, 12] was 0%, the “Survival rate (animals)” value [3, 12] was 6/6 and the “Survival rate, percentage” value [3, 12] was 100%. The “A/B: No. of collapsed / No. of provoked guinea pigs” value [3, 13] was 0/6, the “A/B: collapsed guinea pigs, percentage” value [3, 13] was 0% and the “Survival rate (animals)” value [3, 13] was 6/6. For the same molecule, the “Survival rate, percentage” value [3, 13] was 100%, the “A/B: No. of collapsed / No. of provoked guinea pigs” value [3, 14] was 0/5 and the “A/B: collapsed guinea pigs, percentage” value [3, 14] was 0%. For the same molecule, the “Survival rate (animals)” value [3, 14] was 5/5, the “Survival rate, percentage” value [3, 14] was 100% and the “incidences of asthma attack vs non treated” value ([3]; more than 0.5 mg/kg dose) was “inhibits significantly”. The collapse ([3]; more than oral 5 mg/kg dose) was “completely inhibits collapse”, the “inhibitory action on asthma attack compared with homochlorcyclizine” value ([3]; oral) was “more significant; also recorded: prohibits the asthma attack more significantly than that of homochlorocyclizine” and the shock death ([3]; oral 1 mg/kg) was “inhibits shock death”. For the same molecule, the “p (statistical significance vs non treatment)” value [3, 10] was less than 0.01, the “z1 (statistical value vs non treatment)” value [3, 10] was 2.618 and the “p (statistical significance vs non treatment)” value [3, 11] was less than 0.0001. For the same molecule, the “z1 (statistical value vs non treatment)” value [3, 11] was 4.032, the “p (statistical significance vs non treatment)” value [3, 12] was less than 0.001 and the “z1 (statistical value vs non treatment)” value [3, 12] was 3.686. The “p (present compound vs homochlorcyclizine)” value [3, 13] was less than 0.04, the “p (statistical significance vs non treatment)” value [3, 13] was less than 0.0001 and the “z1 (statistical value vs non treatment)” value [3, 13] was 4.112. The “z2 (statistical value, present compound vs homochlorcyclizine)” value [3, 13] was 2.067, the “p (present compound vs homochlorcyclizine)” value [3, 14] was less than 0.05 and the “p (statistical significance vs non treatment)” value [3, 14] was less than 0.001. For the same molecule, the “z1 (statistical value vs non treatment)” value [3, 14] was 3.26, the “z2 (statistical value, present compound vs homochlorcyclizine)” value [3, 14] was 2.008 and the “A/B: No. of collapsed / No. of provoked guinea pigs” value ([4]; 0.156 mg/kg p.o.) was 10/10. For the same molecule, the “A/B: collapsed guinea pigs, number in parentheses (percentage)” value (“A/B: collapsed guinea pigs … (percentage)” for short) ([4]; 0.156 mg/kg p.o.) was 100, the “Survival rate (animals)” value ([4]; 0.156 mg/kg p.o.) was 0/10 and the “Survival rate, number in parentheses (percentage)” value (from here on “Survival rate … (percentage)”) ([4]; 0.156 mg/kg p.o.) was 0. For the same molecule, the “A/B: No. of collapsed / No. of provoked guinea pigs” value ([4]; 0.313 mg/kg p.o.) was 10/10, the “A/B: collapsed guinea pigs … (percentage)” value ([4]; 0.313 mg/kg p.o.) was 100 and the “Survival rate (animals)” value ([4]; 0.313 mg/kg p.o.) was 10/10. For the same molecule, the “Survival rate … (percentage)” value ([4]; 0.313 mg/kg p.o.) was 100, the “significance of difference from non treatment 1” value ([4]; 0.313 mg/kg p.o.) was “markedly significant difference” and the “z1 (statistical value)” value ([4]; 0.313 mg/kg p.o. vs non treatment 1) was greater than 5. The “A/B: No. of collapsed / No. of provoked guinea pigs” value ([4]; 0.625 mg/kg p.o.) was 9/10, the “A/B: collapsed guinea pigs … (percentage)” value ([4]; 0.625 mg/kg p.o.) was 90 and the “Survival rate … (percentage)” value ([4]; 0.625 mg/kg p.o.) was 100. For the same molecule, the “significance of difference from non treatment 1” value ([4]; 0.625 mg/kg p.o.) was “markedly significant difference”, the “z1 (statistical value)” value ([4]; 0.625 mg/kg p.o. vs non treatment 1) was greater than 5 and the “A/B: No. of collapsed / No. of provoked guinea pigs” value ([4]; 1.25 mg/kg p.o.) was 4/10. The “A/B: collapsed guinea pigs … (percentage)” value ([4]; 1.25 mg/kg p.o.) was 40, the “Survival rate (animals)” value ([4]; 1.25 mg/kg p.o.) was 10/10 and the “Survival rate … (percentage)” value ([4]; 1.25 mg/kg p.o.) was 100. The “significance of difference from non treatment 1” value ([4]; 1.25 mg/kg p.o.) was “markedly significant difference”, the “z1 (statistical value)” value ([4]; 1.25 mg/kg p.o. vs non treatment 1) was greater than 5 and the “A/B: No. of collapsed / No. of provoked guinea pigs” value ([4]; 2.50 mg/kg p.o.) was 1/11. The “A/B: collapsed guinea pigs … (percentage)” value ([4]; 2.50 mg/kg p.o.) was 9.1, the “Survival rate (animals)” value ([4]; 2.50 mg/kg p.o.) was 11/11 and the “Survival rate … (percentage)” value ([4]; 2.50 mg/kg p.o.) was 100. For the same molecule, the “significance of difference from non treatment 1” value ([4]; 2.50 mg/kg p.o.) was “markedly significant difference”, the “p (significant difference from homochlorcyclizine)” value [4, 15] was less than 0.02 and the “z2 (statistical value)” value [4, 15] was 2.332. The “z1 (statistical value)” value ([4]; 2.50 mg/kg p.o. vs non treatment 1) was greater than 5, the “A/B: No. of collapsed / No. of provoked guinea pigs” value ([4]; 10.0 mg/kg p.o.) was 0/6 and the “A/B: collapsed guinea pigs … (percentage)” value ([4]; 10.0 mg/kg p.o.) was 0. The “Survival rate (animals)” value ([4]; 10.0 mg/kg p.o.) was 6/6, the “Survival rate … (percentage)” value ([4]; 10.0 mg/kg p.o.) was 100 and the “p (significant difference from non treatment 2)” value ([4]; 10.0 mg/kg p.o.) was less than 0.0005. The “p for z2 (significant difference from non treatment 1 (so in the source))” value ([4]; 10.0 mg/kg p.o.) was less than 0.005, the “z2 (statistical value)” value ([4]; 10.0 mg/kg p.o. vs non treatment 1 (so in the source)) was 2.844 and the “z1 (statistical value)” value ([4]; 10.0 mg/kg p.o. vs non treatment 2) was 3.321. The “inhibition of asthma attack compared to non treatment and homochlorcyclizine” value ([4]; oral, 2 hrs. prior to histamine) was “markedly and significantly inhibits asthma attack”, the “inhibitory rate on histamine-induced contraction” value [5] was 124% and the anti acetylcholinergic action [6] was “not found to have anti acetylcholinergic action”. The “Inhibition % of extravasation of blue dye” value (“Inhibition %” for short) [7] was 57.8%, the “inhibition of reaginlike, mast cell sensitizing antibody-induced PCA” value (homologous PCA in rats [8]; Wistar rat, oral) was “markedly inhibits” and the “Inhibition %” value (homologous PCA in rats [8]; 25 mg/kg po) was 64.3%. For the same molecule, the “Inhibition %” value (homologous PCA in rats [8]; 50 mg/kg po) was 88.8%, the “inhibition of reaginlike, mast cell sensitizing antibody-induced PCA” value (homologous PCA in rats [9]; SD rat, oral) was “markedly inhibits” and the “Inhibition %” value (homologous PCA in rats [9]; SD, horse serum, 100 mg/kg po, 3 hrs. before challenge, 48 hrs. after sensitization) was 94.8% and 94%. The “inhibition of Schultz-Dale reaction” value (guinea pig ileum) was “markedly inhibits Schultz-Dale reaction”.
